Data on 5 compounds can be found in patent publication US20070154990A1, “Assays for identifying inhibitors of fatty acid amide hydrolase” (priority 2005, published 2007).

Data set [1] concerns the target T1, human FAAH (Homo sapiens, UniProt O00519).
T1 construct: His6; made in house; host or cells: CHO cells, stably transfected; microsomal fraction used
T1 sequence (O00519 1-579): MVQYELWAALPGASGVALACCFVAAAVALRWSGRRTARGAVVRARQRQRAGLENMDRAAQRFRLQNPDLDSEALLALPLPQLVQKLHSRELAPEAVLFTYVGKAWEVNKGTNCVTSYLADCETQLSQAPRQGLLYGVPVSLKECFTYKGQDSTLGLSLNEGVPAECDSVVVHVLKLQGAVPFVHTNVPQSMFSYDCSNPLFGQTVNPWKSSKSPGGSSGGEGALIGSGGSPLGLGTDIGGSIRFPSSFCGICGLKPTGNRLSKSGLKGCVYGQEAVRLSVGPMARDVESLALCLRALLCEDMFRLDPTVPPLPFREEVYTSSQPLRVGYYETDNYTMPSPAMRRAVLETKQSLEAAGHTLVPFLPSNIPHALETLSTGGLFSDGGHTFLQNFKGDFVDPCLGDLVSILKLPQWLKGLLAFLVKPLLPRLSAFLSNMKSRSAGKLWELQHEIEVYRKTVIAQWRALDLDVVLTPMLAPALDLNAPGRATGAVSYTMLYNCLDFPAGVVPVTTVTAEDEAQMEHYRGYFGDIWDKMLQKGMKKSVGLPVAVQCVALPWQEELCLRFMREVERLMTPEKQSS
The experiment in a line: [3H]-anandamide (AEA) hydrolysis by FAAH microsomes. The class given is biochemical. On the procedure: 0.5 μg of human FAAH microsomes were incubated with 1 μM [^3H]-AEA substrate and indicated concentrations of MAEA in assay buffer at room temperature for 2 hours. Released [^3H]-ethanolamine was extracted by chloroform/methanol and counted.
Panel (B) Effect of MAEA on the kinetics of AEA hydrolysis by FAAH-containing microsomes. 0.5 μg of the microsomes comprising FAAH were incubated with the indicated [^3H]-AEA concentrations for 30 minutes with or without 10 μM of MAEA. Released [^3H]-ethanolamine was measured in a scintillation counter.
Microsomes (0.5 μg/assay) prepared from CHO cells expressing human FAAH, were incubated with the indicated concentrations of anandamide (ethanolamine 1-[^3H]) for 30 min at 25° C. in 50 mM HEPES, pH 7.4, 1 mM EDTA and 0.1% BSA. The reaction was terminated by the addition of 2 volumes of chloroform/methanol (1:1, v/v). The samples were vortexed and centrifuged at 1000 g for 3 minutes. The aqueous phase, containing [^3H]-ethanolamine, was collected and measured by liquid scintillation counting. Results are presented as the mean±S.E. of triplicate measurements from at least two independent experiments. The observed rate constants (apparent Km) were calculated using GraphPad Prism 3.02, based on a Michaelis-Menten (one site binding hyperbola) equation Y=BmaxX/[Km+X].
The AEA hydrolysis assays were performed according to the protocols described in Example 1. 0.5 μg of FAAH-containing microsomes per assay were incubated with 8 different concentrations (in a range from 1 μM to 10 μM) of compound in the presence of 1 μM […] in 50 mM HEPES, pH 7.5, 1 mM EDTA, 0.1% BSA at room temperature for 2 hours. ^3H-ethanolamine released from AEA hydrolysis was measured by liquid scintillation counting. Results were analyzed using a sigmoidal dose-response equation by GraphPad Prism 3.02. Numerical results are the mean of triplicate measurements from at least two independent experiments.

Data set [2] concerns the target T1, human FAAH. Put plainly: FAAH SPA binding assay (displacement of [3H]-MAEA from FAAH-containing microsomes). Conditions: for IC50: 3 hours room temperature. On the procedure: FIG. 3. One embodiment of a FAAH SPA assay. […] The radioactivity was counted on a TopCount™ for one minute per sample. Each point shown is the mean±SD of triplicates from at least two independent experiments.
FIG. 7. Inhibition of the binding of [^3H]-MAEA to FAAH-containing microsomes by FAAH inhibitors in SPA. The assay was carried out by incubating 5 μg of FAAH microsomes with 100 nM [^3H]-MAEA and 0.5 mg of WGA beads in 50 mM HEPES, 1 mM EDTA, pH 7.4, 0.1% BSA, with inhibitors in a 200 μL total reaction volume, at room temperature for 3 hours. The final concentration of DMSO in the assay was 0.5%. IC50 values were calculated by fitting the curve to a non-linear regression equation. Each point is the mean±SD of triplicate data from at least two independent experiments.
The SPA assay consisted of 100 nM [^3H]-MAEA (60 Ci/mmol), […] FAAH microsomes and 0.5 mg PVT-WGA beads in buffer (50 mM HEPES, pH 7.4, 1 mM EDTA and 0.1% BSA). The assays were performed in 96 well plates with a final volume of 200 μL. Components were added to the assay plates, which were agitated on a plate shaker for 3-4 hours at room temperature. The assays were then counted on a TopCount NXT (PerkinElmer, Boston, Mass.) for one minute per well. Results presented are the mean±S. E. of triplicate measurements from at least two independent experiments. The IC50 values were calculated using the GraphPad Prism 3.02 program, based on a sigmoidal dose-response equation. The screening window coefficient (Z′-factor) was calculated according to the following equation as previous described (See Zhang, J. H., T. D. Chung, and K. R. Oldenburg, A simple statistical parameter for use in evaluation and validation of high throughput screening assays, J Biomol Screen, 1999, 4: 67-73): Z=1−(3σc++3σc−)/|μc+−μc−| where, σc+ and σc− are standard deviations of positive and negative controls and μc+ and μc− are means of positive and negative controls respectively.
Assays were performed by incubating 0.5 mg of PVT-WGA beads, 100 nM [3H]-MAEA, and 5 μg of FAAH-containing microsomes. Assays were incubated in the wells of 96-well plates.

The target in another data set is T2, FAAH microsomes (Homo sapiens, UniProt O00519).
T2 construct: His6; made in house; host or cells: CHO cells, stably transfected; microsomal fraction used
T2 sequence (O00519 1-579): T1 sequence (O00519 1-579)
Put plainly: Hydrolysis of [3H]-MAEA by FAAH microsomes. Conditions: 5 μg FAAH microsomes over 5 hours. The class given is biochemical. The text has this:
R(+)-methanandamide (R-(+)-arachidonyl-1-′-hydroxy-2′-propylamide, MAEA) is an anandamide analog with a methyl group at the 1′-position of the ethanolamido head group. […] The effects of MAEA on FAAH-catalyzed anandamide hydrolysis was also examined using FAAH-containing microsomes.

For the next data set, the target named is T3, inactive FAAH-S241A (Homo sapiens, UniProt O00519, S241A).
T3 construct: His6; made in house; host or cells: CHO cells, stably transfected; microsomal fraction used
T3 sequence (O00519 1-579 S241A): T1 sequence (O00519 1-579) with S241A
Put plainly: SPA binding of [3H]-MAEA to microsomes with inactive FAAH-S241A mutant. The following applies: 5 μg microsomes containing inactive FAAH-S241A. Here is the method: (§1) FIG. 4. […] The relative activity of FAAH-containing microsomes or those prepared from cells expressing FAAH-S241A or vector control was measured by increasing the microsomal protein concentration ranging from 0-10 μg/assay. 100 nM of [^3H]-MAEA and 0.5 mg of WGA SPA beads were incubated with indicated concentrations of microsomes at 25° C. for 3 hours. Radioactivity was measured in a TopCount™. The SPA signal (CPM) was plotted against amount of microsomal protein in the assay. Each point is the mean±SD of triplicate data from at least two independent experiments.
(§2) Cells were collected by centrifugation at 2000 g for 10 minutes at 4° C. in a Sorvall high-speed centrifuge. The cell pellet was then washed 3 times with PBS and resuspended in buffer containing 50 mM HEPES, pH 7.4, 1 mM EDTA, 1 μM pepstatin, 100 μM leupeptin, 0.1 mg/mL aprotinin. The cells were sonicated 5 times for 10 seconds at 15-second intervals and the cell lysate was further centrifuged at 12000 g for 20 minutes at 4° C. The supernatant was centrifuged at 100,000 g for 30 minutes in a SW28 rotor in a Beckman Optima LE-80K centrifuge. The pellet obtained was the microsomal fraction, which was resuspended in ice-cold buffer. Protein concentration was measured by the BCA method (Pierce) and the microsomal suspension adjusted to 1 mg/mL and stored in aliquots at −80° C. until use. […]

A short description of data set [3]: SPA binding of [3H]-MAEA to microsomes from CHO cells containing only vector. The following applies: 5 μg microsomes from cells containing only vector. More on the design: species or system Chinese hamster. Here is the method: as §1, §2
Setting [4] is: 0.5 μg FAAH-containing microsomes, 1 μM radiolabelled substrate, room temperature 2 hours, read-out: AEA hydrolysis (IC50).
[5] abbreviates: 5 μg FAAH microsomes, 100 nM [3H]-MAEA, 0.5 mg WGA beads.

Numbering of substitutions follows the chain as printed. Where two headings read alike, the source gives them in different places.

For the compound `CCCCC/C=C\C/C=C\C/C=C\C/C=C\CCCC(=O)NCCO` [AEA, arachidonyl ethanolamide], the Michaelis-Menten constant (Km) on human FAAH [1] (FAAH-containing microsomes, without MAEA, read-out: apparent Km for AEA (no inhibitor)) amounted to 9.1 µM.

Turning to `CCCCCCCCCCCC(=O)c1nc2ncccc2o1` [CAY-10400], the IC50 was 2.3 nM on human FAAH [1] (setting [4]) and 3.1 nM on human FAAH [2] (setting [5]).

Regarding `CCCCC/C=C\C/C=C\C/C=C\C/C=C\CCCC(=O)N[C@H](C)CO` [MAEA, R-(+)-arachidonyl-1-′-hydroxy-2′-propylamide], the “[3H]-MAEA degraded” value on FAAH microsomes is listed as “less than 1.5%”. In addition, the “specific binding of [3H]-MAEA to microsomes” value on inactive FAAH-S241A amounted to 6.5%; in data set [3] it was 6.1%; on human FAAH [2] (5 μg microsomes containing FAAH), 90%. The IC50 on human FAAH [1] (0.5 μg human FAAH microsomes, 1 μM [3H]-AEA, 2 hours, read-out: IC50 of inhibition of FAAH-catalyzed anandamide hydrolysis) turned out to be 7400 nM. For the same compound, the “mode of inhibition (Lineweaver-Burk plot)” value on human FAAH [1] (10 μM MAEA) is listed as “competitive FAAH inhibitor”. On human FAAH [1] (MAEA at 10 μM, 30 minutes), the “Vmax of AEA hydrolysis in the presence of the compound” value is reported as 25.82 nmol/min/mg protein. Also, the Km on human FAAH [1] (MAEA at 10 μM, 30 minutes, read-out: apparent Km for AEA in the presence of the compound) worked out at 62.3 µM. The Kd on human FAAH [2] (2 μg FAAH microsomes, 0.5 mg PVT-WGA beads, estimated, read-out: Kd of specific binding to FAAH microsomes) was 25000 nM. The “total [3H]-MAEA bound to FAAH microsomes” value on human FAAH [2] (5 μg microsomes, 100 nM [3H]-MAEA, 0.5 mg WGA beads) is roughly 92%.

In the case of `NC(=O)c1cccc(-c2cccc(OC(=O)NC3CCCCC3)c2)c1` [URB-597], the “SPA counts in the presence of inhibitor” value on human FAAH [2] (URB-597 1 μM, 5 μg FAAH microsomes, 100 nM [3H]-MAEA, 160 cpm without inhibitor) was 1932 cpm. Besides, on human FAAH [2] (same concentration of URB-597 (1 μM), no microsomes), the “effect on the interaction of [3H]-MAEA and the WGA beads” value was “no effect”.

For “Arachidonoyl trifluoromethyl ketone [ATFK]”, the IC50 on human FAAH [1] (setting [4]) was 10.1 nM; at human FAAH [2] (setting [5]), 87 nM.
